Assay results from PMC4391719 (PLoS ONE, 2015).
Read-outs that look alike come from different tables or passages of the source. Where a SMILES comes first, the peptide text is derived from it. The star is where a group is joined. NODAGA = O=C(O)CN1CCN(CC(=O)O)CCN(C(CCC(=O)*)C(=O)O)CC1

Assays:
[1] = Biodistribution of ^111In-labelled fragments in CD1 nu/nu mice without tumours; type: in vivo, mouse; conditions: CD1 nu/nu, mouse, iv, 100 kBq, total radioactivity
Method: (§1) Biodistribution of ^111In-PSI-CLNOD1, ^111In-PSI-CLNOD2, ^111In-PSI-CLNOD3 and ^111In-Ex4NOD40 were performed in CD 1 nu/nu mice with tumour xenografts that were prepared as previously described. Six week-old female CD1 nu/nu mice were subcutaneously inoculated in both shoulder regions with 8 x 10^6 CHL-GLP-1R positive cells suspended in PBS pH 7.4. After 4 weeks, the mice were randomly divided into groups of four mice. For the ^111In-labelled fragments mice without tumours were used. The mice were injected with approximately 100 kBq (1–5 pmol) of the respective ^111In-labelled peptide diluted in PBS pH 7.4 with 0.1% BSA via the tail vein and sacrificed after 4 h by CO2 asphyxiation. […] Blood, heart, lungs, spleen, kidneys, pancreas, stomach, intestine, liver, muscle, bone and tumour were removed, weighted and activity determined in a γ-counter (Packard Cobra II Auto Gamma, Perkin Elmer, Switzerland). The percentage of injected activity per gram tissue (%iA/g) was calculated for each sample. The statistical significance was determined using the two-way ANOVA test and corrected for multiple comparisons using Tukey’s honest significance test. The data was log-transformed to account for the variance in the groups.

[2] = system: meprin α; test: recombinant meprin α in meprin assay buffer (50 mM Tris-HCl pH 7.5 + 1 mM MgCl2 + 1 mM CaCl2) and 1 M Tris pH 7.5; conditions: 37°C, up to 60 min
[3] = system: meprin β; test: recombinant meprin β in meprin assay buffer (50 mM Tris-HCl pH 7.5 + 1 mM MgCl2 + 1 mM CaCl2) and 1 M Tris pH 7.5; conditions: 37°C, up to 60 min
[4] = system: CD1 nu/nu mice; test: Biodistribution of ^111In-labelled fragments in CD1 nu/nu mice without tumours; type: in vivo, mouse; conditions: ^111In-labelled fragment ~100 kBq i.v. tail vein, mice without tumours, after 4 h
Method: as §1

[5] = in vivo, Biodistribution of fragment, Blood
[6] = in vivo, Biodistribution of fragment, Bone
[7] = in vivo, Biodistribution of fragment, Heart
[8] = in vivo, Biodistribution of fragment, Intestines
[9] = in vivo, Biodistribution of fragment, Kidneys
[10] = in vivo, Biodistribution of fragment, Liver
[11] = in vivo, Biodistribution of fragment, Lungs
[12] = in vivo, Biodistribution of fragment, Pancreas
[13] = in vivo, Biodistribution of fragment, Spleen
[14] = in vivo, Biodistribution of fragment, Stomach
[15] = in vivo, activity retained in the kidneys at the end of the experiment
[16] = blood, ^111In-labelled fragment ~100 kBq i.v. tail vein, mice without tumours, after 4 h, read-out: Biodistribution of fragment, Blood
[17] = intestines, ^111In-labelled fragment ~100 kBq i.v. tail vein, mice without tumours, after 4 h, read-out: Biodistribution of fragment, Intestines
[18] = kidneys, ^111In-labelled fragment ~100 kBq i.v. tail vein, mice without tumours, after 4 h, read-out: Biodistribution of fragment, Kidneys
[19] = kidneys, ^111In-labelled fragments, mice without tumours, 4 h after injection, summary in text of S3 Table, read-out: activity retained in the kidneys at the end of the experiment
[20] = liver, ^111In-labelled fragment ~100 kBq i.v. tail vein, mice without tumours, after 4 h, read-out: Biodistribution of fragment, Liver
[21] = lungs, ^111In-labelled fragment ~100 kBq i.v. tail vein, mice without tumours, after 4 h, read-out: Biodistribution of fragment, Lungs
[22] = spleen, ^111In-labelled fragment ~100 kBq i.v. tail vein, mice without tumours, after 4 h, read-out: Biodistribution of fragment, Spleen
[23] = stomach, ^111In-labelled fragment ~100 kBq i.v. tail vein, mice without tumours, after 4 h, read-out: Biodistribution of fragment, Stomach
[24] = in vivo, Biodistribution of fragment, Muscle

| Molecule | tissue uptake at 4 h [1, 5] | tissue uptake at 4 h [1, 6] | tissue uptake at 4 h [1, 7] | tissue uptake at 4 h [1, 8] | tissue uptake at 4 h [1, 9] | tissue uptake at 4 h [1, 10] | tissue uptake at 4 h [1, 11] | tissue uptake at 4 h [1, 12] | tissue uptake at 4 h [1, 13] | tissue uptake at 4 h [1, 14] | tissue uptake at 4 h [1, 15] | fragment found [2] | cleaved bond [3] | further results |
| --- | --- | --- | --- | --- | --- | --- | --- | --- | --- | --- | --- | --- | --- | --- |
| CC(C)[C@H](NC(=O)[C@H](C)NC(=O)[C@H](CCC(=O)O)NC(=O)[C@@H](N)CCC(=O)O)C(=O)N[C@@H](CCCCNC(=O)CCC(C(=O)O)N1CCN(CC(=O)O)CCN(CC(=O)O)CC1)C(N)=O (stereo partly drawn) [CL1-F1] (H-EEAVK(NODAGA)-NH2) | 0.01 %ID/g | 0.05 %ID/g | 0.01 %ID/g | 0.22 %ID/g | 2.28 %ID/g | 0.07 %ID/g | 0.03 %ID/g | 0.01 %ID/g | 0.03 %ID/g | 0.02 %ID/g | < 4 %ID/g | – | – | – |
| HGEGTFTSDLSKQNleEEEAVRLFIEWLKNGGPSSGQNleEEEAVK(NODAGA)-NH2 | – | – | – | – | – | – | – | – | – | – | – | IEW-AVK(natIn-NODAGA)-NH2 | Nle-E and E-E and V-K(^natIn-NODAGA) | – |
| CSCC[C@H](NC(=O)[C@H](Cc1ccc(O)cc1)NC(=O)[C@@H](N)CC(=O)O)C(=O)NCC(=O)N[C@@H](Cc1c[nH]c2ccccc12)C(=O)N[C@@H](CCSC)C(=O)N[C@@H](CC(=O)O)C(=O)N[C@@H](Cc1ccccc1)C(=O)N[C@@H](CCCCNC(=O)CCC(C(=O)O)N1CCN(CC(=O)O)CCN(CC(=O)O)CC1)C(N)=O (stereo partly drawn) [CL2-F1] | – | – | – | – | – | – | – | – | – | – | – | – | – | tissue uptake at 4 h [1, 16]: 0.02 %ID/g; tissue uptake at 4 h ([1]; bone, ^111In-labelled fragment ~100 kBq i.v. tail vein, mice without tumours, after 4 h, read-out: Biodistribution of fragment, Bone): 0.06 %ID/g; tissue uptake at 4 h ([1]; heart, ^111In-labelled fragment ~100 kBq i.v. tail vein, mice without tumours, after 4 h, read-out: Biodistribution of fragment, Heart): 0.02 %ID/g; tissue uptake at 4 h [1, 17]: 0.15 %ID/g; tissue uptake at 4 h [1, 18]: 2.5 %ID/g; tissue uptake at 4 h [1, 19]: < 4 %ID/g; tissue uptake at 4 h [1, 20]: 0.17 %ID/g; tissue uptake at 4 h [1, 21]: 0.04 %ID/g; tissue uptake at 4 h ([1]; pancreas, ^111In-labelled fragment ~100 kBq i.v. tail vein, mice without tumours, after 4 h, read-out: Biodistribution of fragment, Pancreas): 0.02 %ID/g; tissue uptake at 4 h [1, 22]: 0.07 %ID/g; tissue uptake at 4 h [1, 23]: 0.04 %ID/g; Biodistribution of fragment, Muscle [4]: 0.00 %iA/g |
| HGEGTFTSDLSKQNleEEEAVRLFIEWLKNGGPSSGDYMGWMDFK(NODAGA)-NH2 | – | – | – | – | – | – | – | – | – | – | – | IEWL-DFK(natIn-NODAGA)-NH2 | G-D and M-D | cleaved bond [2]: M-D and G-G |
| NC(=O)[C@H](CCCCNC(=O)CCC(C(=O)O)N1CCN(CC(=O)O)CCN(CC(=O)O)CC1)NC(=O)[C@H](CO)NC(=O)[C@@H]1CCCN1C(=O)[C@@H]1CCCN1C(=O)[C@@H]1CCCN1C(=O)[C@@H](N)CCC(=O)O (stereo partly drawn) [CL3-F2] (H-EPPPSK(NODAGA)-NH2) | 0.02 %ID/g | 0.21 %ID/g | 0.01 %ID/g | 0.1 %ID/g | 2.22 %ID/g | 0.07 %ID/g | 0.04 %ID/g | 0.01 %ID/g | 0.03 %ID/g | 0.02 %ID/g | < 4 %ID/g | – | – | tissue uptake at 4 h [1, 24]: 0.02 %ID/g |
| NC(=O)[C@@H](N)CCCCNC(=O)CCC(C(=O)O)N1CCN(CC(=O)O)CCN(CC(=O)O)CC1 (stereo partly drawn) [CL1-F3] | – | 0.07 %ID/g | 0.01 %ID/g | 0.09 %ID/g | 1.72 %ID/g | 0.08 %ID/g | 0.03 %ID/g | 0.01 %ID/g | 0.03 %ID/g | 0.02 %ID/g | < 4 %ID/g | – | – | – |
| NC(=O)[C@H](CCCCNC(=O)CCC(C(=O)O)N1CCN(CC(=O)O)CCN(CC(=O)O)CC1)NC(=O)[C@H](CO)NC(=O)[C@@H]1CCCN1C(=O)[C@@H]1CCCN1C(=O)[C@@H]1CCCN1C(=O)[C@H](CCC(=O)O)NC(=O)[C@@H](N)CC(=O)O (stereo partly drawn) [CL3-F1] (H-DEPPPSK(NODAGA)-NH2) | – | – | – | – | – | – | – | – | – | – | – | – | – | tissue uptake at 4 h [1, 16]: 0.01 %ID/g; tissue uptake at 4 h [1, 17]: 0.04 %ID/g; tissue uptake at 4 h [1, 18]: 1.71 %ID/g; tissue uptake at 4 h [1, 19]: < 4 %ID/g; tissue uptake at 4 h [1, 20]: 0.04 %ID/g; tissue uptake at 4 h [1, 21]: 0.02 %ID/g; tissue uptake at 4 h [1, 22]: 0.01 %ID/g; tissue uptake at 4 h [1, 23]: 0.01 %ID/g; Biodistribution of fragment, Heart [4]: 0.00 %iA/g; Biodistribution of fragment, Muscle [4]: -0.01 %iA/g; Biodistribution of fragment, Pancreas [4]: 0.00 %iA/g |
| NC(=O)[C@H](CCCCNC(=O)CCC(C(=O)O)N1CCN(CC(=O)O)CCN(CC(=O)O)CC1)NC(=O)[C@H](Cc1ccccc1)NC(=O)[C@@H](N)CC(=O)O (stereo partly drawn) [CL2-F2] | 0.01 %ID/g | 0.01 %ID/g | 0.01 %ID/g | 0.14 %ID/g | 2.11 %ID/g | 0.11 %ID/g | 0.03 %ID/g | 0.02 %ID/g | 0.04 %ID/g | 0.03 %ID/g | < 4 %ID/g | – | – | tissue uptake at 4 h [1, 24]: 0.01 %ID/g |
| HGEGTFTSDLSKQNleEEEAVRLFIEWLKNGGPSEDEPPPSK(NODAGA)-NH2 | – | – | – | – | – | – | – | – | – | – | – | IEW –K(natIn-NODAGA) | E-D and D-E | cleaved bond [2]: D-E |
| CC(C)[C@H](NC(=O)[C@H](C)NC(=O)[C@@H](N)CCC(=O)O)C(=O)N[C@@H](CCCCNC(=O)CCC(C(=O)O)N1CCN(CC(=O)O)CCN(CC(=O)O)CC1)C(N)=O (stereo partly drawn) [CL1-F2] (H-EAVK(NODAGA)-NH2) | 0.01 %ID/g | 0.06 %ID/g | 0.02 %ID/g | 0.1 %ID/g | 2.97 %ID/g | 0.08 %ID/g | 0.04 %ID/g | 0.01 %ID/g | 0.03 %ID/g | 0.02 %ID/g | < 4 %ID/g | – | – | – |
